Key:
MCF7 cells = assay: Multiplexed cell number, β-gal and TUNEL in MCF7; format: cell-based, human; settings: 0.125 µM or 0.5 µM, 1-5 DT
Method: The viable cell number was determined by PI staining, the % of β-gal positive cells was determined using an antibody to β-gal, and the % of Tunel positive cells was determined by the incorporation of labelled dUTP. The data are plotted as the mean (+/- SD) of 2 experiments for CDK4 and CDK6 inhibitor treatment, and the mean of 6 experiments (+/- SD) for untreated samples. The duration of treatment is plotted along the x-axis in doubling times (DT) for MCF7 cells.
After treatment, cells were fixed, washed with PBS, permeabilized and β-gal was detected using anti-β-galactosidase antibody; for multiplexed assays, TUNEL staining was carried out using Roche TUNEL reagents as indicated above. Nuclei were also stained with PI for total cell counting. Plates were read in an Acumen Explorer Ex3 (TTP Labtech) and raw data were analyzed with Cellista software. Outputs were expressed as percentages of each identified subpopulation 1) positive β-gal, and 2) total cell number. The percentages of β-gal positive cells, TUNEL positive cells, and cell numbers were plotted in Microsoft Excel.

[1] = test system: HR+ and HR- breast cancer cell lines; assay: Proliferation after washouts (EdU Click-iT) in breast cancer lines; format: cell-based, human; settings: HR+ versus HR- breast cancer cell lines; exposure 2 hr, 24 hr or 72 hrs followed by washout
Method: Images were SA-β-galactosidase immunocytochemical labeling taken by fluorescent microscopy using a Leica DMiL. […] SA-β-gal Cell samples were lysed after treatment with expression was determined using the Senescence Cells 100 μL lysis buffer and transferred to a 96-well plate. Histochemical Staining Kit (Sigma, CS0030) following 30 μL of each sample were transferred into deep well the vendor 's manual. Images were taken at 100x by bright plates using TECAN-EVO Workstation. Samples were field microscopy (Leica DMiL). treated for derivatization of the metabolites of interest and internal standards. For this, 50 μL of derivatization reagent Proliferation studies after washouts (EdU Click- and 80 μL of internal standard (IS, SupplementaryTable iT®) 1), were added with multidrop, plates were vortexed for 5 mins and let sit for one hour at 4 °C. The IS used were the Cells were plated onto poly-D-lysine D or 13C-labeled commercial analogues of nine of the ten coated 96-well plates at a density of 2,000-6,000 metabolites, prepared at 25 μM in water (Supplementary viable cells per well, and treated with abemaciblib or Table 1). The derivatization reagents (from Sigma), […] washout schedule shown on Supplementary Figure 1A. […] EdU Samples were analyzed by LC-MS/MS under the detection was performed using the Click-iT High Content conditions described below. […] Cell images were captured using a Cellomics Arrayscan VTI and analyzed Analysis of the derivatized-extracted samples with the Target Activation bio-application V.3 reading in 4 was carried out with an Agilent 6460 Triple Quadrupole channels at a magnification of 10X. […] The software relative levels and sub-cellular localization of EdU were for data collection and treatment was Agilent Masshunter determined through the respective intensities and locations Workstation. Mobile phases for chromatography were: of Alexa-488 fluorescence. mobile phase A: formic acid (5 mM) and ammonium formate (10 mM) in water; mobile phase B: acetonitrile. […]

Row | Compound | TUNEL staining (MCF7 cells) | percentage of cells with β-gal staining compared with abemaciclib (MCF7 cells) | DNA synthesis / proliferation as measured by EdU incorporation [1]
1 | CC(=O)c1c(C)c2cnc(Nc3ccc(N4CCNCC4)cn3)nc2n(C2CCCC2)c1=O [palbociclib] | only minor increases in TUNEL staining were observed and only after longer treatment times | lower | decrease in proliferation preferentially for HR+ cell lines; however, this effect was only observed after longer treatment times
2 | CN(C)C(=O)c1cc2cnc(Nc3ccc(N4CCNCC4)cn3)nc2n1C1CCCC1 [ribociclib] | only minor increases in TUNEL staining were observed and only after longer treatment times | lower | –

Reference: publication PMC5642494 (Oncotarget, 2017)
